Results on ten compounds are retold here after the kinase profiling compilation of Christmann-Franck et al. (2016).

Each structure is given as a SMILES string.

Test in all cases: radiometric filter-binding kinase assay
In assay [1] the target is PRKCG (human) (UniProt P05129).
For assay [2], the target named is PTK6 (human) (UniProt Q13882).
Assay [3] deals with ZAP70 (human) (UniProt P43403).
Assay [4] has as its target STK33 (human) (UniProt Q9BYT3).
Assay [5] deals with NUAK1 (human) (UniProt O60285).
In assay [6] the target is STK16 (human) (UniProt O75716).
Assay [7] has as its target MAP2K6 (human) (UniProt P52564).
Assay [8] concerns the target TEK (human) (UniProt Q02763).
Assay [9] deals with ABL1 (human) (UniProt P00519).
Assay [10] deals with TLK1 (human) (UniProt Q9UKI8).
The target in assay [11] is IRAK1 (human) (UniProt P51617).
The target of assay [12] is EIF2AK3 (human) (UniProt Q9NZJ5).
The subject of assay [13] is OXSR1 (human), O95747 [T185E].

Sequence of STK16 (human) (O75716 whole entry, looked up): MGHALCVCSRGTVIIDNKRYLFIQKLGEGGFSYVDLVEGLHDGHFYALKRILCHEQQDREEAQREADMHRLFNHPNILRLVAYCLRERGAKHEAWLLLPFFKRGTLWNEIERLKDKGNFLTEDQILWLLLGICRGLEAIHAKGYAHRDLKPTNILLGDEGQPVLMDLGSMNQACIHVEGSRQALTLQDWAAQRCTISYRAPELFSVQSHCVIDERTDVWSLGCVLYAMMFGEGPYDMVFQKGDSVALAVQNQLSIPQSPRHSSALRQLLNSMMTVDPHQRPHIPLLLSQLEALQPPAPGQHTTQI
Sequence of OXSR1 (human), O95747 [T185E] (O95747 whole entry T185E, looked up): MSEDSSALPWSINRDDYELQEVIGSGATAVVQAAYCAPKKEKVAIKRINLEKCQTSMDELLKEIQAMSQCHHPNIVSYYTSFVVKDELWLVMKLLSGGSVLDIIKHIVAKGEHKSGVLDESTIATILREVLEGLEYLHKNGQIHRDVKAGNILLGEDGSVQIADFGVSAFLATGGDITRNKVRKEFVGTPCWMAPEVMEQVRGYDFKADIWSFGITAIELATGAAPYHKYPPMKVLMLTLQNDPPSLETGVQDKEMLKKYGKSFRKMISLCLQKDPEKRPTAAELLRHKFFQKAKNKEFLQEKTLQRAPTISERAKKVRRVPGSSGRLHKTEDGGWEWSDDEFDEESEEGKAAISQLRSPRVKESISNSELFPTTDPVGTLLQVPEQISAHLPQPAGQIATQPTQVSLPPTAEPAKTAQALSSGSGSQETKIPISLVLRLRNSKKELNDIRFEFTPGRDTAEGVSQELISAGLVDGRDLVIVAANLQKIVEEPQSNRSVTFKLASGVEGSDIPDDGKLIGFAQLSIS
Sequence of MAP2K6 (human) (P52564 whole entry, looked up): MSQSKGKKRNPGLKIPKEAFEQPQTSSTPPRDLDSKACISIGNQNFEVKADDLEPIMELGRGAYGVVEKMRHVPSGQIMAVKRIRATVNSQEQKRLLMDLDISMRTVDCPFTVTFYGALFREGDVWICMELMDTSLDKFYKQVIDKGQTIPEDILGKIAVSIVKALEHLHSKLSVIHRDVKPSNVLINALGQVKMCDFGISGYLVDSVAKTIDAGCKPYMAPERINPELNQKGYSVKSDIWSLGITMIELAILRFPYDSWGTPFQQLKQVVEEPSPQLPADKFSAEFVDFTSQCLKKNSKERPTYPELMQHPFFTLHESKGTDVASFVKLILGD
Sequence of NUAK1 (human) (O60285 whole entry, looked up): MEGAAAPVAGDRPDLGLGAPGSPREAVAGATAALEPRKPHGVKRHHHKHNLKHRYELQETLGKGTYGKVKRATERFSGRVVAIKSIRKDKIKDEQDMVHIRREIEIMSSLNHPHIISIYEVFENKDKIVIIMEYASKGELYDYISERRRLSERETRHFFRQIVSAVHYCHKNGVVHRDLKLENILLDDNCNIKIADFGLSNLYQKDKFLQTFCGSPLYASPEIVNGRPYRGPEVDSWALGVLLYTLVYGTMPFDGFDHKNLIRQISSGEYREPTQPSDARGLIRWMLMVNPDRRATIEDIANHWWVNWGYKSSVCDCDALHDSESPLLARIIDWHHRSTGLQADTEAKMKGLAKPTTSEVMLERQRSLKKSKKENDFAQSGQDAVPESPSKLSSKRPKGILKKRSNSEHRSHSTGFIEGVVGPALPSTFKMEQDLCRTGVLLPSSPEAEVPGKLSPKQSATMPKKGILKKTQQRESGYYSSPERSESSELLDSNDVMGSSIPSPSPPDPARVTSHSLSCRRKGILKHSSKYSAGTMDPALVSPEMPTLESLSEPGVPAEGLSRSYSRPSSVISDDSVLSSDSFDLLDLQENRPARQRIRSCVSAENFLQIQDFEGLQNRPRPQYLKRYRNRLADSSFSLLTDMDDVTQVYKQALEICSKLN
Sequence of TLK1 (human) (Q9UKI8 whole entry, looked up): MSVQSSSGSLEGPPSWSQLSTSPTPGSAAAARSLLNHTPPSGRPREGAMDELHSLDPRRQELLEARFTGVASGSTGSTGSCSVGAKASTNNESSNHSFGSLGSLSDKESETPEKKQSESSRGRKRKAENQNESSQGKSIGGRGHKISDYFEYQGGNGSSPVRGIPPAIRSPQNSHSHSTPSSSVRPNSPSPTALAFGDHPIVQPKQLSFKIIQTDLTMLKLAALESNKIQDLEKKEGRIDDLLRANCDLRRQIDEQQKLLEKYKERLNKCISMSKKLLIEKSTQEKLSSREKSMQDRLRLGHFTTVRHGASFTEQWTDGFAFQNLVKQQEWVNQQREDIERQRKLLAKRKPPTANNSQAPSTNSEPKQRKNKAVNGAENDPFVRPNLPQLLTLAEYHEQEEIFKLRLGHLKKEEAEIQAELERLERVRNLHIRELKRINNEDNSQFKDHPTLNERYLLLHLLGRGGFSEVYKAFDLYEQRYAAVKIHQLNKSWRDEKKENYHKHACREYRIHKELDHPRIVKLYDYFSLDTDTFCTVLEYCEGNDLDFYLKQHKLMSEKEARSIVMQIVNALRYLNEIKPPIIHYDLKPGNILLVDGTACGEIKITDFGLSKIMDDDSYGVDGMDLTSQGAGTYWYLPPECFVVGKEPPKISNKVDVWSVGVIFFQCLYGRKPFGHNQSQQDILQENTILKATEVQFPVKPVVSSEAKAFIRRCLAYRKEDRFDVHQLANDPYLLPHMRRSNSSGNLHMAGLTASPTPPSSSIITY
Sequence of EIF2AK3 (human) (Q9NZJ5 whole entry, looked up): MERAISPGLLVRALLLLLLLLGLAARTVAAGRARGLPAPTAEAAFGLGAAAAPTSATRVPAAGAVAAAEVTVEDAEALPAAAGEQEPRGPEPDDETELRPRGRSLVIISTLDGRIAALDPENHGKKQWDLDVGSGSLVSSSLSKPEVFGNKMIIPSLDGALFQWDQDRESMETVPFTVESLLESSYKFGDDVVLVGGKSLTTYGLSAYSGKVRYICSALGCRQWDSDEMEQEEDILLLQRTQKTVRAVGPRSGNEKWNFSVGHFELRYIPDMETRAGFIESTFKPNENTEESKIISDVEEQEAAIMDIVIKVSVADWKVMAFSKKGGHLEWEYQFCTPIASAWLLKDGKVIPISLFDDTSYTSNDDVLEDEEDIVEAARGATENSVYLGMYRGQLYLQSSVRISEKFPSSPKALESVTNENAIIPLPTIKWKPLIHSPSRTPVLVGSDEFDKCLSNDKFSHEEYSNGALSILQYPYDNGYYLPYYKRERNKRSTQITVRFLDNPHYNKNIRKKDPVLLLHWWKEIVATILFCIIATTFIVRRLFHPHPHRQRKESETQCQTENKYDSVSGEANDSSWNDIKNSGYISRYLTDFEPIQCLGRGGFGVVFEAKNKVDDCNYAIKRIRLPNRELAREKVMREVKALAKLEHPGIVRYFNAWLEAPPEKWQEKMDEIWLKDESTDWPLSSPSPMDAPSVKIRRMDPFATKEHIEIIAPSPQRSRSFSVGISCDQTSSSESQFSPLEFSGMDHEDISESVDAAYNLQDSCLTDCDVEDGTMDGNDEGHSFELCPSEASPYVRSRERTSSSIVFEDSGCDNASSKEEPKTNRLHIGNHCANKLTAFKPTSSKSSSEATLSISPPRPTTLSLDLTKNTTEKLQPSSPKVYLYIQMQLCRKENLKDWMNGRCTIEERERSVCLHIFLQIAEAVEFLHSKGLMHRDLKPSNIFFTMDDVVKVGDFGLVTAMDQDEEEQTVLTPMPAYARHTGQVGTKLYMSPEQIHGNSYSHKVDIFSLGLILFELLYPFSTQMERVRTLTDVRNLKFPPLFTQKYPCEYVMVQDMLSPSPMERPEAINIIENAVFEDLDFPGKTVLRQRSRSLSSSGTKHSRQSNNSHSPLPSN
Sequence of ZAP70 (human) (P43403 whole entry, looked up): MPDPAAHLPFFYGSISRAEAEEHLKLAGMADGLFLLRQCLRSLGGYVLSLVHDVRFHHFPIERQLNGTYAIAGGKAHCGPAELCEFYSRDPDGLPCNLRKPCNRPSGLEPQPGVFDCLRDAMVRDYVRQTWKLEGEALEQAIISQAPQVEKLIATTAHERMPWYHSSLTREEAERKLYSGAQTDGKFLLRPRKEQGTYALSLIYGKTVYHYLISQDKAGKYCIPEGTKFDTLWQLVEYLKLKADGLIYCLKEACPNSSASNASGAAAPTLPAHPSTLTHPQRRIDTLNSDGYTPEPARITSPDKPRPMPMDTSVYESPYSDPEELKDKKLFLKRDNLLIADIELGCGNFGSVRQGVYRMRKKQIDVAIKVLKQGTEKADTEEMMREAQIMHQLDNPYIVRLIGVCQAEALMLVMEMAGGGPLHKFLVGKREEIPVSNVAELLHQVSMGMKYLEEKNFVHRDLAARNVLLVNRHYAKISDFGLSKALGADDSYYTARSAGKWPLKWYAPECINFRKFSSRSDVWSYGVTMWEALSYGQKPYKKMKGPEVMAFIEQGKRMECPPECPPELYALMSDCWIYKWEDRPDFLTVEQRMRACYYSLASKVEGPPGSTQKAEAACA

What is called residual activity is the signal under treatment as a percentage of the control signal. Regarding `CC(C)C[C@H](NC(=O)CNC(=O)c1cc(Cl)ccc1Cl)B1OC(=O)CC(CC(=O)O)(C(=O)O)O1` (stereo partly drawn), the residual activity is 114% in [1] (compound 10.0 µM); 96% in assay [2] (compound 10.0 µM); 84% in assay [3] (compound 10.0 µM); 98% in assay [4] (compound 10.0 µM); 78% in assay [5] (compound 10.0 µM); 102% in [6] (compound 10.0 µM). In addition, the results for the residual activity in assay [7] (compound 10.0 µM), in assay [8] (compound 10.0 µM) and in assay [9] (compound 10.0 µM) were 92%, 98% and 101%, respectively.
On to `Cc1nc(-c2ccc(OCC(C)C)c(C#N)c2)sc1C(=O)O`, for which the residual activity in assay [1] (compound 1.0 µM) came out at 81%; in assay [1] (compound 10.0 µM), 85%; in assay [10] (compound 1.0 µM), 86%; in assay [10] (compound 10.0 µM) it was 94%; in assay [2] (compound 1.0 µM), 99%; in assay [11] (compound 1.0 µM), 106%. Besides, the residual activity in [11] (compound 10.0 µM) was found to be 102%; in assay [3] (compound 1.0 µM) it was 104%; in assay [4] (compound 1.0 µM), 101%; in [4] (compound 10.0 µM), 89%; in [5] (compound 1.0 µM) it was 95%; in assay [5] (compound 10.0 µM), 73%. The residual activity in assay [6] (compound 1.0 µM) stood at 46%; in assay [6] (compound 10.0 µM), 47%; in assay [12] (compound 1.0 µM), 94%; in assay [12] (compound 10.0 µM) it was 88%; in [7] (compound 1.0 µM) it was 85%; in assay [7] (compound 10.0 µM), 81%. Moreover, the residual activity in assay [8] (compound 1.0 µM) came to 78%; in assay [8] (compound 10.0 µM), 67%; in assay [13] (compound 1.0 µM), 96%; in assay [13] (compound 10.0 µM) it was 80%; in assay [9] (compound 1.0 µM) it was 96%; in assay [9] (compound 10.0 µM) it was 89%.
As to `NC(=O)c1c(NC(=O)C2CC2)sc2c1CCCC2`, the residual activity in assay [1] (compound 1.0 µM) stood at 98%; in assay [1] (compound 10.0 µM) it was 110%; in assay [2] (compound 1.0 µM), 114%; in assay [2] (compound 10.0 µM), 95%; in [3] (compound 1.0 µM), 94%; in assay [3] (compound 10.0 µM), 80%. Also, the residual activity in assay [4] (compound 1.0 µM) worked out at 87%; in [4] (compound 10.0 µM) it was 74%; in [5] (compound 1.0 µM) it was 75%; in [5] (compound 10.0 µM), 30%; in [6] (compound 1.0 µM) it was 107%; in assay [6] (compound 10.0 µM) it was 92%. Also, the residual activity in assay [7] (compound 1.0 µM) was found to be 109%; in assay [7] (compound 10.0 µM), 99%; in [8] (compound 10.0 µM) it was 75%; in assay [9] (compound 1.0 µM), 93%; in assay [9] (compound 10.0 µM), 82%.
`O=C(NCCCNc1nc(Nc2cccc(CN3CCOCC3)c2)ncc1C1CC1)C1CCC1`: the residual activity in assay [1] (compound 0.1 µM) is 88%; in [1] (compound 1.0 µM), 98%; in [10] (compound 0.1 µM), 90%; in [10] (compound 1.0 µM) it was 108%; in assay [2] (compound 0.1 µM) it was 96%; in assay [2] (compound 1.0 µM) it was 110%. Also, the residual activity was determined as 96% in assay [11] (compound 0.1 µM); 79% in [11] (compound 1.0 µM); 92% in [3] (compound 0.1 µM); 94% in [3] (compound 1.0 µM); 80% in assay [4] (compound 0.1 µM); 52% in assay [4] (compound 1.0 µM). Also, the residual activity was 47% in assay [5] (compound 0.1 µM); 11% in assay [5] (compound 1.0 µM); 104% in [6] (compound 1.0 µM); 92% in [12] (compound 0.1 µM); 86% in [12] (compound 1.0 µM); 105% in assay [7] (compound 0.1 µM). The residual activity came out at 113% in [7] (compound 1.0 µM); 95% in assay [8] (compound 0.1 µM); 81% in assay [8] (compound 1.0 µM); 83% in assay [13] (compound 0.1 µM); 94% in assay [13] (compound 1.0 µM).
Consider `O=S(=O)(c1ccc(F)c2nonc12)N1CCN(c2ncc(C(F)(F)F)cc2Cl)CC1`, for which the residual activity amounted to 98% in [1] (compound 10.0 µM); 101% in assay [2] (compound 10.0 µM); 85% in assay [3] (compound 10.0 µM); 97% in [4] (compound 10.0 µM); 90% in assay [5] (compound 10.0 µM); 94% in assay [6] (compound 10.0 µM). Besides, the results for the residual activity in [7] (compound 10.0 µM), in [8] (compound 10.0 µM) and in [9] (compound 10.0 µM) were 95%, 112% and 111%, respectively.
Regarding `CCCCCc1ccc(/C=C/[C@H](O)[C@@H](CO)NC)cc1`, the residual activity came out at 101% in assay [1] (compound 0.1 µM); 109% in [1] (compound 1.0 µM); 96% in [1] (compound 10.0 µM); 104% in [2] (compound 0.1 µM); 93% in [2] (compound 1.0 µM); 104% in [2] (compound 10.0 µM). Moreover, the residual activity in [3] (compound 0.1 µM) was 116%; in assay [3] (compound 1.0 µM) it was 106%; in [3] (compound 10.0 µM) it was 92%; in [4] (compound 0.1 µM) it was 100%; in assay [4] (compound 1.0 µM), 100%; in assay [4] (compound 10.0 µM), 89%. Moreover, the residual activity in assay [5] (compound 0.1 µM) is 105%; in [5] (compound 1.0 µM), 108%; in [5] (compound 10.0 µM), 101%; in [6] (compound 0.1 µM) it was 104%; in assay [6] (compound 1.0 µM) it was 98%; in [6] (compound 10.0 µM), 100%. Besides, the residual activity in assay [7] (compound 0.1 µM) is 102%; in assay [7] (compound 1.0 µM), 98%; in assay [7] (compound 10.0 µM), 99%; in assay [8] (compound 0.1 µM), 141%; in assay [8] (compound 1.0 µM), 118%; in assay [8] (compound 10.0 µM), 113%. In addition, the results for the residual activity in assay [9] (compound 0.1 µM), in [9] (compound 1.0 µM) and in assay [9] (compound 10.0 µM) were 110%, 106% and 109%, respectively.
`O=C(NOCC(O)CO)c1ccc(F)c(F)c1Nc1ccc(I)cc1Cl` (stereo not drawn): the residual activity in assay [1] (compound 1.0 µM) came to 110%; in assay [1] (compound 10.0 µM) it was 100%; in assay [10] (compound 1.0 µM), 95%; in assay [10] (compound 10.0 µM), 100%; in assay [2] (compound 1.0 µM), 126%; in [2] (compound 10.0 µM) it was 110%. For the same compound, the residual activity came out at 81% in assay [11] (compound 1.0 µM); 79% in assay [11] (compound 10.0 µM); 77% in assay [3] (compound 1.0 µM); 98% in assay [3] (compound 10.0 µM); 92% in assay [4] (compound 1.0 µM); 90% in [4] (compound 10.0 µM). In addition, the residual activity in assay [5] (compound 1.0 µM) worked out at 108%; in [5] (compound 10.0 µM), 95%; in assay [6] (compound 1.0 µM), 87%; in [6] (compound 10.0 µM), 86%; in assay [7] (compound 1.0 µM), 90%; in assay [7] (compound 10.0 µM) it was 67%. The residual activity in assay [8] (compound 1.0 µM) was found to be 106%; in [8] (compound 10.0 µM), 87%; in [13] (compound 10.0 µM), 87%; in [9] (compound 1.0 µM), 101%; in assay [9] (compound 10.0 µM) it was 107%.
In the case of `c1ccc2c(-c3cnn4cc(-c5ccc(N6CCNCC6)cc5)cnc34)ccnc2c1`, the residual activity in assay [1] (compound 0.1 µM) amounted to 99%; in [1] (compound 1.0 µM) it was 97%; in assay [1] (compound 10.0 µM), 92%; in [2] (compound 0.1 µM), 78%; in assay [2] (compound 1.0 µM) it was 21%; in assay [2] (compound 10.0 µM) it was 5%. Further, the residual activity in [3] (compound 0.1 µM) is 86%; in assay [3] (compound 1.0 µM), 69%; in assay [3] (compound 10.0 µM) it was 101%; in assay [4] (compound 0.1 µM) it was 81%; in assay [4] (compound 1.0 µM) it was 44%; in [4] (compound 10.0 µM) it was 11%. The residual activity in assay [5] (compound 0.1 µM) stood at 57%; in assay [5] (compound 1.0 µM), 17%; in assay [5] (compound 10.0 µM), 5%; in assay [6] (compound 0.1 µM) it was 97%; in assay [6] (compound 1.0 µM), 98%; in assay [6] (compound 10.0 µM), 84%. In addition, the residual activity in assay [7] (compound 0.1 µM) stood at 87%; in [7] (compound 1.0 µM) it was 89%; in assay [7] (compound 10.0 µM), 104%; in assay [8] (compound 0.1 µM) it was 102%; in [8] (compound 1.0 µM), 86%; in assay [8] (compound 10.0 µM), 30%. Besides, the residual activity came to 43% in assay [9] (compound 0.1 µM), 6% in assay [9] (compound 1.0 µM) and 4% in assay [9] (compound 10.0 µM).
Take `COc1cc(O)c2c(c1)/C=C/C[C@H](O)[C@H](O)C(=O)/C=C\C[C@H](C)OC2=O`: the residual activity turned out to be 87% in assay [1] (compound 0.1 µM); 87% in [1] (compound 1.0 µM); 65% in [2] (compound 0.1 µM); 25% in assay [2] (compound 1.0 µM); 110% in [3] (compound 0.1 µM); 96% in assay [3] (compound 1.0 µM). For the same compound, the residual activity was found to be 120% in assay [4] (compound 0.1 µM); 85% in [4] (compound 1.0 µM); 113% in assay [5] (compound 0.1 µM); 78% in assay [5] (compound 1.0 µM); 103% in assay [6] (compound 0.1 µM); 101% in assay [6] (compound 1.0 µM). Also, the residual activity is 12% in assay [7] (compound 0.1 µM); 10% in [7] (compound 1.0 µM); 103% in [8] (compound 0.1 µM); 93% in assay [8] (compound 1.0 µM); 108% in assay [9] (compound 0.1 µM); 71% in [9] (compound 1.0 µM).
`CCOC(=O)c1ccc(N2NC(=O)/C(=C/c3ccc([N+](=O)[O-])o3)C2=O)cc1`: the residual activity in [1] (compound 10.0 µM) turned out to be 99%; in [10] (compound 10.0 µM), 108%; in assay [2] (compound 10.0 µM) it was 79%; in assay [11] (compound 10.0 µM), 84%; in assay [3] (compound 10.0 µM), 95%; in assay [4] (compound 10.0 µM) it was 119%. Also, the residual activity in [12] (compound 10.0 µM) came out at 83%; in assay [7] (compound 10.0 µM), 87%; in assay [8] (compound 10.0 µM) it was 128%; in assay [13] (compound 10.0 µM), 115%; in [9] (compound 10.0 µM) it was 107%.
